Test results reported in publication PMC11345841, “Exploring 2-Sulfonylpyrimidine Warheads as Acrylamide Surrogates for Targeted Covalent Inhibition: A BTK Story” (Journal of Medicinal Chemistry, 2024).
Where two headings read alike, the source gives them in different places.

Columns and labels:
Experiment in all cases: KINOMEscan ScanTK
Assay type in all cases: binding
[1] = molecular target: T1, ABL1(F317L)-nonphosphorylated (Homo sapiens, UniProt P00519, F317L)
T1 construct: purchased Eurofins DiscoverX KINOMEscan (scanTK)
T1 sequence (P00519 whole entry F317L): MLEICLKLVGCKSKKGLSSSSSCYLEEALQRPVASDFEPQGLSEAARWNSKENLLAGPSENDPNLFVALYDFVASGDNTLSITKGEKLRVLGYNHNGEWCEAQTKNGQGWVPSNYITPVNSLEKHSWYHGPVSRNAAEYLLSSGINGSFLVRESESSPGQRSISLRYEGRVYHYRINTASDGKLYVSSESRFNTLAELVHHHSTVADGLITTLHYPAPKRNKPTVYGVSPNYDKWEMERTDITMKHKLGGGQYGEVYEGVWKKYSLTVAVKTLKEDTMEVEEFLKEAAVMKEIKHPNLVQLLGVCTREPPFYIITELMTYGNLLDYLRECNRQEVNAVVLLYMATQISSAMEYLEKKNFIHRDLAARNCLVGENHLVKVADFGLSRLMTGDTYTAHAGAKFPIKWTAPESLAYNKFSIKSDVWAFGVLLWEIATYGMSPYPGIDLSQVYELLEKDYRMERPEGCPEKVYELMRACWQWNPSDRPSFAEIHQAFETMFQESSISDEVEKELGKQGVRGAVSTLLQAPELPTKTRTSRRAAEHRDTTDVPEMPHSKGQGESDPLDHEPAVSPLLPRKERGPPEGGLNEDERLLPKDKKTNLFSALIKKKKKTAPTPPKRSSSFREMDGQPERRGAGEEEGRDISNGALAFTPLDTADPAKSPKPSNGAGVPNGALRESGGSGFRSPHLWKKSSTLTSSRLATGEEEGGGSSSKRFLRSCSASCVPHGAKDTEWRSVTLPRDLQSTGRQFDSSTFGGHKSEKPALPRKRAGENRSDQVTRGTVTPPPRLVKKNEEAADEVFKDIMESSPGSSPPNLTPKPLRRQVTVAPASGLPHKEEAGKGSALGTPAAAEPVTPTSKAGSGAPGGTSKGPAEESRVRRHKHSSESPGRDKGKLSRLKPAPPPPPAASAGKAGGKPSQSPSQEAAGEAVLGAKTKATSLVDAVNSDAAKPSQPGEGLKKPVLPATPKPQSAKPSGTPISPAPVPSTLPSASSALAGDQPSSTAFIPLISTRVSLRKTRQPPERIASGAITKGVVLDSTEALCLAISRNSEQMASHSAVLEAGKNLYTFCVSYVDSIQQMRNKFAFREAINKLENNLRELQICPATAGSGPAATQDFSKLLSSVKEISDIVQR

ALK(C1156Y) = molecular target: T2, ALK(C1156Y) (Homo sapiens, UniProt Q9UM73, C1156Y)
T2 construct: purchased Eurofins DiscoverX KINOMEscan (scanTK)
T2 sequence (Q9UM73 19-1620 C1156Y): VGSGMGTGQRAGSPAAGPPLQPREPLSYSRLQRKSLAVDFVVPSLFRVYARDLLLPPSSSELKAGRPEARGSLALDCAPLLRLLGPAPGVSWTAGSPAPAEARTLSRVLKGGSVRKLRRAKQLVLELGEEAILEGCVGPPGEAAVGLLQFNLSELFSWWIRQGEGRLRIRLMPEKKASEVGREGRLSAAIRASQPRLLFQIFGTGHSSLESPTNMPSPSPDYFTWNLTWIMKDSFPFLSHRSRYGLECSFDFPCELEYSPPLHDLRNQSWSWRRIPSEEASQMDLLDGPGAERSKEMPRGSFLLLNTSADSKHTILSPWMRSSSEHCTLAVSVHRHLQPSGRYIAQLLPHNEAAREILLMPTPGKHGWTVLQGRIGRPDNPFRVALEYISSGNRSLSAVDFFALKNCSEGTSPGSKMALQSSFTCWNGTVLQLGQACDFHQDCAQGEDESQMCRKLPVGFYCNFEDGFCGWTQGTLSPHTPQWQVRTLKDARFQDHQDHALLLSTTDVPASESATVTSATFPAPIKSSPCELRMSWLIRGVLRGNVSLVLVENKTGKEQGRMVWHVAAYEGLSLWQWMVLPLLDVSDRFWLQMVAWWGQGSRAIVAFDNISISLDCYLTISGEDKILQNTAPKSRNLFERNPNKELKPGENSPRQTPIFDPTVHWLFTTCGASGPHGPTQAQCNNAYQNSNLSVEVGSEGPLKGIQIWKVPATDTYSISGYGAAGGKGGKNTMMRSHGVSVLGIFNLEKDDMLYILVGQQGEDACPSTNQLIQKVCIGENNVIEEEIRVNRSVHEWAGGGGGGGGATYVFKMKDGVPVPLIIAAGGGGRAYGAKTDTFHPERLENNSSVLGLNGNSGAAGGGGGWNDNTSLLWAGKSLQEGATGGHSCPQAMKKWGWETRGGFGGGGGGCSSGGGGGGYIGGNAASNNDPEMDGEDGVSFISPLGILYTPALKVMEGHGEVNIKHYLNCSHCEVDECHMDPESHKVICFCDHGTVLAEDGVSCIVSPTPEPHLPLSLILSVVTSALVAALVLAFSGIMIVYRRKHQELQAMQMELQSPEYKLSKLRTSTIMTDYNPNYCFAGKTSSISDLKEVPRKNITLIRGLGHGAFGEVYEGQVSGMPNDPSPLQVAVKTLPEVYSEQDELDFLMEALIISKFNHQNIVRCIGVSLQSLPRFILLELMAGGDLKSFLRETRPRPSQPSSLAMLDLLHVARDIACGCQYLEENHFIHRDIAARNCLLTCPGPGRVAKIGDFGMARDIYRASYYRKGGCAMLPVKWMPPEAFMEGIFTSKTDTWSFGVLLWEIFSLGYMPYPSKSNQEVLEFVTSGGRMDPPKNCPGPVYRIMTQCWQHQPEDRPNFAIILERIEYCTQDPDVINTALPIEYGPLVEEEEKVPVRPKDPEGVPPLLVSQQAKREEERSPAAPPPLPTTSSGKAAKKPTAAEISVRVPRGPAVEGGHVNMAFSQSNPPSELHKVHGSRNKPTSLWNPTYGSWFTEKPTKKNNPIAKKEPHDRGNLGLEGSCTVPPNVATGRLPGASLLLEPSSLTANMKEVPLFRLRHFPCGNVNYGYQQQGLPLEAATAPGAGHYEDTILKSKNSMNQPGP

EPHB1 = molecular target: T3, EPHB1 (Homo sapiens, UniProt P54762)
T3 construct: purchased Eurofins DiscoverX KINOMEscan (scanTK)
T3 sequence (P54762 18-984): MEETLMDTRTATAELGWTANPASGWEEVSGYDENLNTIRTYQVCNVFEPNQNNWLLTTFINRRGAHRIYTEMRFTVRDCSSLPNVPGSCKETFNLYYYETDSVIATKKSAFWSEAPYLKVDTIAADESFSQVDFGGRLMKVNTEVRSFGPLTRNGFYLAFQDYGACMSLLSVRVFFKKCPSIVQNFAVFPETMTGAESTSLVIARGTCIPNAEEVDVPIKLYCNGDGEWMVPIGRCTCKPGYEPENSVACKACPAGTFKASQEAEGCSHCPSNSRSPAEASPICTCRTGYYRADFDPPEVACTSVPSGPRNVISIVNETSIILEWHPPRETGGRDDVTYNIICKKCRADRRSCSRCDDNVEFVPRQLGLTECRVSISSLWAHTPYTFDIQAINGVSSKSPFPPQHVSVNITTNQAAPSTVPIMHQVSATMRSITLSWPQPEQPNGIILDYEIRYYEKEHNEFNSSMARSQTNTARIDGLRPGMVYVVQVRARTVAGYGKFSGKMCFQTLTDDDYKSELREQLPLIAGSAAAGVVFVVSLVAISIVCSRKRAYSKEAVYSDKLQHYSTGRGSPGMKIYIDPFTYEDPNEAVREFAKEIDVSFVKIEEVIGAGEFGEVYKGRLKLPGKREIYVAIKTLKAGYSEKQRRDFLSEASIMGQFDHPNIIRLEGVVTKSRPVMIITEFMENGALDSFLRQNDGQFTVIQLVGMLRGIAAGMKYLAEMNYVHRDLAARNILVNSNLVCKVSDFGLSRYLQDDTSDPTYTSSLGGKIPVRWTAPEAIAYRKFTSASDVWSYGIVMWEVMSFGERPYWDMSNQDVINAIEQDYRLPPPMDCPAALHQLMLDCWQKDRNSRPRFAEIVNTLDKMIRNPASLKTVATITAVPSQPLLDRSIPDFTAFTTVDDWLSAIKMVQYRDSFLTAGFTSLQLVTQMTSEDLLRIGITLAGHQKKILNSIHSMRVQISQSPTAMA

TIE2 = molecular target: T4, TIE2 (Homo sapiens, UniProt Q02763)
T4 construct: purchased Eurofins DiscoverX KINOMEscan (scanTK)
T4 sequence (Q02763 23-1124): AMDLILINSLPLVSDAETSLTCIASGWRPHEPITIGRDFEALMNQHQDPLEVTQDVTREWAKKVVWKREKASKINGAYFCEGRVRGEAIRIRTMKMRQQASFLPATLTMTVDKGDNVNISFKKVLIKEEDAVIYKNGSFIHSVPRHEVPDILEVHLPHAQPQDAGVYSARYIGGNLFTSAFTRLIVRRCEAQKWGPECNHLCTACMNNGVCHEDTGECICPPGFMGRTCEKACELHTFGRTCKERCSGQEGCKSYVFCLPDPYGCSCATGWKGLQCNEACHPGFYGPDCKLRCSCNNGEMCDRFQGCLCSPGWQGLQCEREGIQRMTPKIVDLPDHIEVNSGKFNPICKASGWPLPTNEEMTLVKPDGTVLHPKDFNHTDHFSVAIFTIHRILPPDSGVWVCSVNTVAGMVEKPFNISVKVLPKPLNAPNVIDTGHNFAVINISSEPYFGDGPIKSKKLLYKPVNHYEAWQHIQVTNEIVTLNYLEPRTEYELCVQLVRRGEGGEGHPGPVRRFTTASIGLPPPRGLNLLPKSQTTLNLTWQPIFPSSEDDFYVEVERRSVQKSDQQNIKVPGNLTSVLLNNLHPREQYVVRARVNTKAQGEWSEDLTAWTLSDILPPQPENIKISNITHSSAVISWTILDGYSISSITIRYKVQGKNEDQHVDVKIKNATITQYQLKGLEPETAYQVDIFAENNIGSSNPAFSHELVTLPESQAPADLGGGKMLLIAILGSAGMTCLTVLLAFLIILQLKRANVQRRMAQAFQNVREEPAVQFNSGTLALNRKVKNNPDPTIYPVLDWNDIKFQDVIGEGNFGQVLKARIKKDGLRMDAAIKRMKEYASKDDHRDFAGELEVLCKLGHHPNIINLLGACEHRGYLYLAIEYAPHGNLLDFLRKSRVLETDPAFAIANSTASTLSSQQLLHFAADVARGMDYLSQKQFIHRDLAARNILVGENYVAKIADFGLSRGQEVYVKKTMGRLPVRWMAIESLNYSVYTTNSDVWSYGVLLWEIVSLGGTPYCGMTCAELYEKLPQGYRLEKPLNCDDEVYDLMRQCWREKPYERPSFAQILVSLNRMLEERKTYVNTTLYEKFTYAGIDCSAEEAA

TNK1 = molecular target: T5, TNK1 (Homo sapiens, UniProt Q13470)
T5 construct: purchased Eurofins DiscoverX KINOMEscan (scanTK)
T5 sequence (Q13470 1-666): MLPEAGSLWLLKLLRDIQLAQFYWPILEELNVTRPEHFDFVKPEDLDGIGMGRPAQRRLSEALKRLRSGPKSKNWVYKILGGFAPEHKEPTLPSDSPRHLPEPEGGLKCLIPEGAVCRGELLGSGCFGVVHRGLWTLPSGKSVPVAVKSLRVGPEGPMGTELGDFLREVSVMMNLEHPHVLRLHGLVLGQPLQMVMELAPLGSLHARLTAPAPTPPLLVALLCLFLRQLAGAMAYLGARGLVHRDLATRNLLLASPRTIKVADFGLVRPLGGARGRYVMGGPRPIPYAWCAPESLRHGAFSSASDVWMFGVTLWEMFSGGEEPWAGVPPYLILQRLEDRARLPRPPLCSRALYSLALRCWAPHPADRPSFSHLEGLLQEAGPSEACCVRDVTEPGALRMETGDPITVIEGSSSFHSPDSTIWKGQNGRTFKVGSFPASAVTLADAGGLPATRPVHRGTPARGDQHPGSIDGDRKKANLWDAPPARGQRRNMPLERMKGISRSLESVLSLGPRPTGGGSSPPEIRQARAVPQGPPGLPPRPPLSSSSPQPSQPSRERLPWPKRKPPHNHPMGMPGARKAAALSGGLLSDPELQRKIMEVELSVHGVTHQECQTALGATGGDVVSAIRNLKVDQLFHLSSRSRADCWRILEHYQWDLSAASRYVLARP

[2] = molecular target: T6, TYK2(JH1domain-catalytic) (Homo sapiens, UniProt P29597)
T6 construct: TYK2(JH1domain-catalytic); purchased Eurofins DiscoverX KINOMEscan (scanTK)
T6 sequence (P29597 888-1187 limits assumed): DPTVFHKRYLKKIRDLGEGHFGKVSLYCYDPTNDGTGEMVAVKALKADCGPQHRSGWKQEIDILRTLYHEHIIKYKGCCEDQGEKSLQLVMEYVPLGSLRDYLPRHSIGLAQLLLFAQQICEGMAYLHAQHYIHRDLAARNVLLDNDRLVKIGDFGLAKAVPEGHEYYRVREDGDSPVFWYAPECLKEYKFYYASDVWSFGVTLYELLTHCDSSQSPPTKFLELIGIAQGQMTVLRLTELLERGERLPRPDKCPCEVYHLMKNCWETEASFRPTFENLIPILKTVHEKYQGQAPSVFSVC

YES = molecular target: T7, YES (Homo sapiens, UniProt P07947)
T7 construct: purchased Eurofins DiscoverX KINOMEscan (scanTK)
T7 sequence (P07947 whole entry): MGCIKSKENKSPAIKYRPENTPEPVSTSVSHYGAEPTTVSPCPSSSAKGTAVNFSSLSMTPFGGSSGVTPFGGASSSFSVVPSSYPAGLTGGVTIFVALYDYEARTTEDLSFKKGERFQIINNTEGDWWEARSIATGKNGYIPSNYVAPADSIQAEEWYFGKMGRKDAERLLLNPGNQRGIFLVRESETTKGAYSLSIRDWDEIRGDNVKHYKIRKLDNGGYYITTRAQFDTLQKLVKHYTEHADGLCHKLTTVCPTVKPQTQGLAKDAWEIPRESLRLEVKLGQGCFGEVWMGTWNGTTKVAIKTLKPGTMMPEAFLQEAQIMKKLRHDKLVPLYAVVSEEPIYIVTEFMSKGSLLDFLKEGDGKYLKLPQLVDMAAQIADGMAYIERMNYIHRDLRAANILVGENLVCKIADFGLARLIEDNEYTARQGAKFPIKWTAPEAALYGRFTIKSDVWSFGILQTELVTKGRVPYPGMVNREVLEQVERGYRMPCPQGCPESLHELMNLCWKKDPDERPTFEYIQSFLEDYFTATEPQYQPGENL

[3] = @1000nM, EPHB1, read-out: %Control
[4] = EPHB1, read-out: %Control @1000nM

SMILES	difference in % of control binding versus compound Ib at 1 µM ([1]; @1000nM) [%]	remaining binding at 1 µM ([1]; @1000nM, read-out: %Control) [%]	remaining binding at 1 µM ([1]; read-out: %Control @1000nM) [%]	difference in %Control versus compound Ib at 1 µM (ALK(C1156Y); @1000nM) [%]	remaining binding at 1 µM (ALK(C1156Y); @1000nM, read-out: %Control) [%]	remaining binding at 1 µM (ALK(C1156Y); read-out: %Control @1000nM) [%]	difference in % of control versus compound Ib at 1 µM (EPHB1; @1000nM, EPHB1) [%]	remaining binding at 1 µM (EPHB1; [3]) [%]	remaining binding at 1 µM (EPHB1; [4]) [%]	remaining binding at 1 µM (TIE2; @1000nM, read-out: %Control) [%]	remaining binding at 1 µM (TIE2; read-out: %Control @1000nM) [%]	remaining binding at 1 µM (TNK1; @1000nM, read-out: %Control) [%]	remaining binding at 1 µM (TNK1; read-out: %Control @1000nM) [%]	remaining binding at 1 µM ([2]; @1000nM, read-out: %Control) [%]	remaining binding at 1 µM ([2]; read-out: %Control @1000nM) [%]	remaining binding at 1 µM (YES; @1000nM, read-out: %Control) [%]	remaining binding at 1 µM (YES; read-out: %Control @1000nM) [%]	remaining binding at 1 µM (EPHB1; read-out: %Control) [%]	remaining binding at 1 µM (EPHB1; read-out: %Control @1000nM) [%]
CNC(=O)c1cnc(S(C)(=O)=O)nc1N1CCCC(n2nc(-c3ccc(Oc4ccccc4)cc3)c3c(N)ncnc32)C1 (stereo not shown) [Compound 8d, 4-(3-(4-Amino-3-(4-phenoxyphenyl)-1H-pyrazolo[3,4-d]pyrimidin-1-yl)piperidin-1-yl)-N-methyl-2-(methylsulfonyl)pyrimidine-5-carboxamide]	22	54	54	-10	88	88	1	91	91	74	74	97	97	100	100	11	11		
C=CC(=O)N1CCC[C@@H](n2nc(-c3ccc(Oc4ccccc4)cc3)c3c(N)ncnc32)C1 [Compound 1g, Ibrutinib, reference compound]		32	32		98	98						93	93					90	90
Cc1cnc(S(C)(=O)=O)nc1N1CCCC(n2nc(-c3ccc(Oc4ccccc4)cc3)c3c(N)ncnc32)C1 (stereo not shown) [Compound 8a, 1-(1-(5-Methyl-2-(methylsulfonyl)pyrimidin-4-yl)piperidin-3-yl)-3-(4-phenoxyphenyl)-1H-pyrazolo[3,4-d]pyrimidin-4-amine]	44	76	76	-13	85	85	3	93	93	91	91	91	91	89	89	8.1	8.1		

Continued, in another order:

difference in % of control binding versus compound Ib at 1 µM ([1]; @1000nM) [%]	remaining binding at 1 µM ([1]; @1000nM, read-out: %Control) [%]	remaining binding at 1 µM ([1]; read-out: %Control @1000nM) [%]	difference in %Control versus compound Ib at 1 µM (ALK(C1156Y); @1000nM) [%]	remaining binding at 1 µM (ALK(C1156Y); @1000nM, read-out: %Control) [%]	remaining binding at 1 µM (ALK(C1156Y); read-out: %Control @1000nM) [%]	difference in % of control versus compound Ib at 1 µM (EPHB1; @1000nM, EPHB1) [%]	remaining binding at 1 µM (EPHB1; [3]) [%]	remaining binding at 1 µM (EPHB1; [4]) [%]	remaining binding at 1 µM (TIE2; @1000nM, read-out: %Control) [%]	remaining binding at 1 µM (TIE2; read-out: %Control @1000nM) [%]	remaining binding at 1 µM (TNK1; @1000nM, read-out: %Control) [%]	remaining binding at 1 µM (TNK1; read-out: %Control @1000nM) [%]	remaining binding at 1 µM ([2]; @1000nM, read-out: %Control) [%]	remaining binding at 1 µM ([2]; read-out: %Control @1000nM) [%]	remaining binding at 1 µM (YES; @1000nM, read-out: %Control) [%]	remaining binding at 1 µM (YES; read-out: %Control @1000nM) [%]	SMILES	remaining binding at 1 µM (EPHB1; read-out: %Control) [%]	remaining binding at 1 µM (EPHB1; read-out: %Control @1000nM) [%]
58	90	90	-8	90	90	1	91	91	90	90	81	81	100	100	25	25	CCOC(=O)c1cnc(S(C)(=O)=O)nc1N1CCC[C@@H](n2nc(-c3ccc(Oc4ccccc4)cc3)c3c(N)ncnc32)C1 [Compound 8c, Ethyl (R)-4-(3-(4-Amino-3-(4-phenoxyphenyl)-1H-pyrazolo[3,4-d]pyrimidin-1-yl)piperidin-1-yl)-2-(methylsulfonyl)pyrimidine-5-carboxylate]		
38	70	70	-8	90	90	-2	88	88	72	72	88	88	95	95	16	16	COC(=O)c1cnc(S(C)(=O)=O)nc1N1CCCC(n2nc(-c3ccc(Oc4ccccc4)cc3)c3c(N)ncnc32)C1 (stereo not shown) [Compound 8b, Methyl 4-(3-(4-Amino-3-(4-phenoxyphenyl)-1H-pyrazolo[3,4-d]pyrimidin-1-yl)piperidin-1-yl)-2-(methylsulfonyl)pyrimidine-5-carboxylate]		
